2 molecules from paper PMC12162873, “Modulating phosphatase DUSP22 with BML-260 ameliorates skeletal muscle wasting via Akt independent JNK-FOXO3a repression” (EMBO Molecular Medicine, 2025) can be followed below.

Molecules are shown by their SMILES. Values joined by “and” are separate entries in the source; they are usually repeats but may differ in a detail not shown here. Identical values can stand only once.

Assay [1] concerns C2C12 myotubes. The assay is described as follows: Real-time qPCR of gene expression in C2C12 myotubes. It is filed as cell-based, mouse. To be noted: for atrogin-1 and MuRF-1 expression, qPCR: 10 μM Dex 24 h, 12.5 μM BML-260; for DUSP22 expression, qPCR, Average / MURF-1 expression, qPCR, Average / atrogin-1 (ATRO) expression, qPCR, Average: Vehicle average = 1, n = 5; for DUSP22 expression, qPCR / MURF-1 expression, qPCR / atrogin-1 (ATRO) expression, qPCR: Vehicle average = 1, replicates. The procedure: (§1) C2C12 murine skeletal muscle myoblasts were purchased from Koram Biotech Corp. (Seoul, Republic of Korea). Prior to experiments, mycoplasma contamination was eliminated using the MycoXpert Mycoplasma Removal Reagent (MYX-B, CAPRICORN) following the manufacturer’s protocol. To ensure complete removal, all cells were passaged three times after treatment before being used in subsequent experiments. No STR profiling was recently undertaken. Myoblasts were cultured in growth media (GM), containing Dulbecco’s modified Eagle’s medium (DMEM), 10% fetal bovine serum, and 1% penicillin and streptomycin (PenStrep). C2C12 myoblasts were differentiated into myotubes at more than 80% confluence by culture in differentiation media (DM), containing DMEM supplemented with 2% horse serum and PenStrep, for 96 h. To induce atrophy, the myotubes were treated with DM plus 10 μM Dex for 24 h. BML-260 and SP600125 were purchased from Santa Cruz Biotechnology, TX, USA (cat. no. sc-223822 and sc-200635).
The StepOnePlus Real Time PCR System (Applied Biosystems, UK) was used to measure the mRNA level of the genes of interest. An AccuPower RT PreMix (Bioneer, Republic of Korea) was used to synthesize the cDNA from total RNA. The real-time PCR (qPCR) was carried out according to the manufacturer’s instructions, and the previously published protocol (Lee et al, [2020]). Details of the primers used in this study are shown in Appendix Tables S1 and S2.
(§2) Gene knockdown was carried out following the manufacturer’s protocol using a 6-well culture plate format (Thermo Fischer Scientific, Waltham, USA). Lipofectamine 3000 was used for the transfection step (Thermo Fischer Scientific, Waltham, USA). siRNA transfection was performed on day 3 of myoblast differentiation into myotubes. C2C12 myotubes and primary human myotubes were transfected with 75 pmol siRNA duplex. Details of the siRNAs used in this study are shown in Appendix Table S3.
A general note: Real-time PCR tracks product formation cycle by cycle.

In assay [2] the test system is C2C12 murine myotubes. The assay is described as follows: Dex-induced C2C12 myotube atrophy: myotube diameter, fusion and differentiation indexes. To be noted: 10 μM Dex 24 h, 12.5 μM BML-260. The format is cell-based, mouse. As to the method: as §1
Fast myosin heavy chain 2 (MYH2) immunocytochemistry was used to visualize murine myotubes and measure myotube diameter, following the previously published protocol (Chen et al, [2016]). After mounting, fluorescence images were captured in 5 different regions using a DMI 3000 B microscope (Leica, Germany), and analyzed using the NIH imaging software Image J 64. 100 myotubes containing at least three nuclei were measured in each experimental group. Myotubes were primarily examined in the central area of each well, as opposed to randomly selected fields. The mid-point of the myotube was used to measure the diameter. For nuclear counts, we chose myotubes containing three or more nuclei. The observer was aware of the treatment conditions.
To assess myoblast fusion into multinucleate myotubes, nuclei number within fast myosin (MYH2)-positive cells were measured using the NIH imaging software Image J 64. The differentiation index was calculated as the percentage of nuclei in fast myosin (MYH2)-positive cells (nuclei in myotubes/total nuclei). Myotubes were classified as MYH-positive cells containing at least 4 nuclei. Myotubes were measured in groups of at least 100, with at least 7500 nuclei measured in each group.
as §2

Assay [3] concerns C57BL/6J mice. The assay is described as follows: Dex treatment mouse model of skeletal muscle atrophy, BML-260 treatment. It is filed as in vivo. To be noted: for mean body weight: 15 mg/kg Dex, 5 mg/kg BML-260, IP daily. As to the method:
The Dex model of muscle atrophy was based on the previously published protocol (Kim et al, [2022]). In brief, 12-week-old male C57BL/6J mice were treated as follows: 1) Vehicle (DMSO in PBS pH 7.4 with 5% Tween 80) alone, 2) 15 mg/kg Dex dissolved in vehicle, 3) 15 mg/kg Dex and 5 mg/kg BML-260 (n = 5 per group). Mice were treated daily by intraperitoneal (IP) injection for 14 d and then assessed for muscle condition. The 5 mg/kg in vivo dose was selected based on a previous study that carried out bilateral injection of BML-260 into the fat pads of male 8-week-old C57BL/6J mice (Feng et al, [2019]).
Grip strength was measured using the BIO-GS3 device (Bioseb, FL, USA). Mice were placed onto the grid with all four paws attached and gently pulled backwards to measure the grip strength until the grid was released. The maximum grip value, used to represent muscle force, was calculated using 3 trials with an interval of 30 s.
Muscle fatigue was measured the previously described protocol (Chiu et al, [2018]), with two different models using the Rotarod. One was the constant model and the other was the accelerating model that is inherent in the rotarod device. In brief, the mice were accommodated to training before the commencement of the fatigue task using an accelerating rotarod (Ugo Basile, Italy). The mice were trained at a constant speed of 13 rpm for 15 min. After a recovery period of 15 min, the mice were placed on the rotarod adjusted to accelerate from 13 to 25 rpm in 3 min for 15 min. 24 h later, the muscle fatigue test was carried out with speeds ramping from 13 to 25 rpm in 3 min, and maintained at 25 rpm for a 30 min interval. Latency to fall off the rotarod was measured for each mouse. A fatigued mouse was classified as falling off 4 times within a 1 min period, which also terminated the test.
Mice were anesthetized using ketamine (22 mg/kg; Yuhan, Republic of Korea) and xylazine (10 mg/kg; Bayer, Republic of Korea) in saline by IP injection. The quadriceps, gastrocnemius, soleus and TA muscles were then dissected and weighed. For histological analysis, the muscles were fixed by overnight incubation with 4% paraformaldehyde in PBS pH 7.4 at 4 °C. Paraffin sectioning and H&E staining were provided by the Animal Housing Facility, Gwangju Institute of Science and Technology, Republic of Korea (5 µm muscle sections using a Thermo Scientific HistoStar (Thermofisher). H&E staining was carried out with a kit (Merck, Germany)). For immunohistochemistry, TA muscle sections were permeabilized for 15 min (PBS with 0.5% Triton X-100), blocked for 1 h (5% BSA) and incubated with the primary antibody overnight at 4 °C (a list of primary and secondary antibodies used in this study are provided in Appendix Tables S4 and S5, respectively). After washing with PBS 3 times for 5 min, the sections were incubated with the secondary antibody at RT for 1 h. The nuclei were counterstained with DAPI in ProLong™ Gold Antifade Mountant (Invitrogen, P36935). Digital images were acquired with Leica DM 2500 (Leica Microsystems). Cross sectional area (CSA) and fiber size distribution was measured using the NIH imaging software Image J 64. To CSA and size distribution of different fiber types was calculated in 4 muscle section as follows: type 2 A: 30–40 fibers measured; type 2B: at least 100 fibers measured; type 2X: 30–40 fibers measured.

[4] abbreviates: dexamethasone-treated C2C12 myotubes.
Setting [5] is: dexamethasone-treated C2C12 myotubes, listed as BML.
Setting [6] is: 15 mg/kg Dex and 5 mg/kg BML-260, IP daily 14 d.
Setting [7] is: C2C12 myotubes treated with Dex.

Turning to `O=C(O)c1ccc(N2C(=O)C(=Cc3ccccc3)SC2=S)cc1` (stereo in doubt) [BML-260], the “atrogin-1 and MuRF-1 expression, qPCR” value in assay [1] is listed as “downregulated”. Also, the “additional effect on Dex-induced atrogene expression in the presence of DUSP22 gene knockdown” value in assay [1] (Dex-treated C2C12 myotubes) is on record as “no significant additional effect”. Besides, in assay [1] (setting [4]), the “DUSP22 expression, qPCR, Average” value stood at 1.419; the “MURF-1 expression, qPCR, Average” value is 2.125; the “atrogin-1 (ATRO) expression, qPCR, Average” value amounted to 2.99. In assay [1] (setting [5]), the “DUSP22 expression, qPCR” value was 1.3832 and 1.906 and 1.483 and 1.176 and 1.145; the “MURF-1 expression, qPCR” value is 2.278 and 2.851 and 2.228 and 1.487 and 1.782; the “atrogin-1 (ATRO) expression, qPCR” value is 3.37 and 3.403 and 3.232 and 2.06 and 2.886. Besides, in assay [2], the “myotube atrophy (myotube diameter)” value was “prevented myotube atrophy”; the “myotube fusion and differentiation indexes” value was “recovered”; the “proportion of larger-sized myotubes” value is “maintained the proportion of larger-sized myotubes”. Moreover, in assay [3] (setting [6]), the TA muscle mass result is reported as “increased”; the grip strength result is reported as “increased the mean grip strength value, but it did not achieve statistical significance”; the myofiber area distribution entry is reported as “shifted the myofiber area distribution towards larger sized fibers”; the “rotarod muscle performance, acceleration and constant models” value is recorded as “significantly recovered muscle performance”. For the same molecule, in assay [3] (setting [6]), the “upregulation of atrogin-1, MuRF-1 and DUSP22 in TA muscle, western blot” value is given as “inhibited”. Besides, the “myofiber CSA” value in assay [3] (15 mg/kg Dex and 5 mg/kg BML-260, IP daily 14 d, TA muscle per text) was “significantly increased”. Besides, in assay [3], the mean body weight result is “recovered”.

As for `C[C@@H]1C[C@H]2[C@@H]3CCC4=CC(=O)C=C[C@]4(C)[C@@]3(F)[C@@H](O)C[C@]2(C)[C@@]1(O)C(=O)CO` [Dex, dexamethasone], in assay [1], the “atrogin-1 and MuRF-1 expression, qPCR” value is recorded as “upregulated”. For the same molecule, the “DUSP22 expression in myotubes undergoing Dex-induced atrophy, RNA Seq and qPCR” value in assay [1] (C2C12 myotubes) is “upregulated”. Also, in assay [1] (setting [7]), the “DUSP22 expression, qPCR, Average” value was 1.867; the “DUSP22 expression, qPCR” value is 1.751 and 1.762 and 2.076 and 2.045 and 1.699. In assay [1] (setting [4]), the “DUSP22 expression, qPCR, Average” value is given as 1.628; the “MURF-1 expression, qPCR, Average” value is given as 2.64; the “atrogin-1 (ATRO) expression, qPCR, Average” value is 4.291; the “DUSP22 expression, qPCR” value was 2.068 and 1.836 and 1.276 and 1.511 and 1.449. In assay [1] (setting [4]), the “MURF-1 expression, qPCR” value is 3.398 and 2.859 and 1.96 and 2.287 and 2.697; the “atrogin-1 (ATRO) expression, qPCR” value was 4.546 and 3.961 and 4.048 and 4.199 and 4.699. Moreover, the “myotube atrophy (myotube diameter)” value in assay [2] is reported as “underwent atrophy”. In assay [3], the mean body weight entry is “significantly reduced”. For the same molecule, the “DUSP22 expression, qPCR” value in assay [3] (TA muscle of C57BL/6 mice treated with Dex, Vehicle average = 1, individual animals) was 2.47 and 1.789 and 1.328 and 1.032.
